# Laboratory results from patent publication US20110009332A1, “Therapeutic Treatment Of Wounds” (SOUTHWEST RESEARCH INSTITUTE, priority 2009, published 2011).
# Values joined by “and” are separate entries in the source; they are usually repeats but may differ in a detail not shown here. Identical values can stand only once. Where a SMILES comes first, the peptide text is derived from it. The star is where a group is joined. Cbz = O=C(OCc1ccccc1)*; OtBu = CC(C)(C)O*
# Assays:
# BMP-1 = BMP-1 gene expression (qPCR, normalized over 18S) in human dermal fibroblasts; format: cell-based
# Procedure: An examination of gene expression of BMP-1 was conducted using a number of proteasome inhibitors including, proteasome inhibitor-1, curcumin, MG-132 and bortezomib. Human neonatal dermal fibroblasts (AllCells, Catalog No. HN006001) were maintained in Dulbecco's modified Eagle's medium (DMEM) supplemented with 10% fetal bovine serum. Early passage cells were plated at 2×10^4 cells/cm^2 and grown in humidified 5% CO2 at 37° C. for 24 hours. Spent media was replaced the following day with assay media including Proteasome inhibitor-1 was added in DMEM at 1 μM and 0.1 μM. Untreated cells were used as the control group. For the human osteogenesis PCR array, the experimental group was treated only at 1 μM. In addition, in separate trials, spent media was replace by assay media of curcumin added in DMEM at 10 μM and 100 μM, MG-132 in DMEM at 0.1 μM and 1 μM, and bortezomib in DMEM at 0.1 μm and 1 μM.
# Phenol-chloroform extraction was performed to isolate the total RNA for real time polymerase chain reaction array. More specifically, the total RNA was prepared using TRI REAGENT (Ambion, product number 9738), wherein the total RNA was obtained from the human neonatal dermal fibroblasts. Note that isolation was performed as per the instructions provided with the TRI REAGENT. The RNA was used for subsequent quantitative polymerase chain reaction (qPRC) gene expression of BMP1 measured using hydrolysis probes (TAQMAN probes available from Applied Biosystems) as described further below.
# Concentration and integrity of the obtained total RNA was assessed by absorbance in a spectrophotometer at 260 nm and 280 nm and by electrophoresis in 1% agarose with formaldehyde loading dye. For TAQMAN gene expression assays, cDNA was synthesized from 2 μg of total RNA using the High Capacity cDNA Reverse Transcription Kit (Applied Biosystems, product number 4368814), again following the protocol supplied with the kit. The resulting cDNA was diluted 1:10.
# For TAQMAN gene expression, gene-specific fluorescent labeled TAQMAN primers for FAM-BMP1 (Applied Biosystems, product Hs0098677.g1) and TAQMAN reference VIC-18S ribosomal RNA (Applied Biosystems, product number 4310893E) were used to target the gene of interest. A cocktail of universal master mix (Applied Biosystems, product number 4369016) was prepared individually for both set of primers which contained Taq Polymerase, dNTPs, and buffer. Template cDNA's were added separately to respective individual wells in triplicate samples. PCR was performed on StepOne Plus Real Time System instrument (Applied Biosystems). The amplification program consisted of 1 cycle of 95° C. with 10 minute hold (hot start) followed by 50 cycles of 95° C. with 15 second annealing hold and 1 minute 60° C. specified acquisition hold.
# For human osteogenisis PCR array, total RNA was prepared using silica matrix purification using RNEASY MINI KIT (Qiagen, product number 74101) according to the manufacturer's recommendations. cDNA was synthesized from 1 μg of purified DNA-free RNA accordingly to RT^2First Strand Kit (SABiosciences, C-03). The resulting cDNA was diluted 1:30 and amplified. The procedure for the PCR array using real-time PCR is based on the RT^2 Profiler PCR array system instructions for Human Osteogenesis (SABiosciences, product number PAHS-026C). A cocktail reaction mix was setup as recommended by the PCR manufacturer (SABiosceiences, product number PA-012). PCR was performed using the same temperature parameters as used with the StepOne Plus Real Time System instrument. The Ct value of endogenous reference gene (i.e. 18s) was used to control for input RNA and then used to normalize target gene (i.e. BMP-1) tested from the same cDNA sample (Δ Ct), and then calibrated to an internal reference sample (ΔΔCt). Change in gene expression was determined by the expression 2̂-(ΔΔCt). […]
# 20S proteasomes = 20S proteasomes (Homo sapiens, UniProt P28074); test: Inhibition of 20S proteasome enzyme activity; format: biochemical; conditions: 0 nM to 10,000 nM, FIGS. 7-9
# Procedure: The IC50 may be understood as the amount of a particular substance/molecule needed to inhibit a given biological process in vitro by 50% and may be an indicator of the potency of a compound. The activity of the proteasome may be quantified by measuring the amount of fluorescence produced by cleavage of a fluorogenic substrate, such as LLVY-AMC, which when released by proteasomal cleavage, may emit fluorescent light.
# The enzyme activity of 20S proteasomes was measured upon increasing addition of the proteasome inhibitors PS-1, curcumin and genestein in concentrations ranging from 0 nM to 10,000 nM. In particular, FIG. 7 illustrates the inhibition of 20S proteasomes upon the addition of PS-1. […] FIG. 8 illustrates the inhibition of the 20S proteasomes upon the addition of curcumin. […] FIG. 9 illustrates the inhibition of the 20S proteasomes upon the addition of genestein.
# rat skin = test: Tensile strength of rat skin after 28 days of treatment (Example 2); format: in vivo, rats; design: Tensile strength of rat skin, Mean: unit not given here; conditions: for Tensile strength of rat skin, individual samples: 100 μl per wound site daily for 5 days, samples 1-5, in N/mm²; for Tensile strength of rat skin, individual samples / Tensile strength of rat skin, Mean: after 28 days; for Tensile strength of rat skin, Mean: control mean 3.12114
# Procedure: Testing of PS-1 was performed in rats and was provided at 1% and 5% in DMSO. The rats received 100 μl per wound site. The compound was administered daily for 5 days and skin was collected at 7 days, 14 days and 28 days. The biomechanical tensile strength of the skin was measured. Table 2 illustrates the testing data after 28 days for a control sample without treatment, 1% PS-1 in DMSO and 5% PS-1 in DMSO.
# [1] = 0.1 μM inhibitor, FIG. 27, nontreated approximately 1.52 (MG132) / 1.50 (bortezomib), may not be statistically significant
# [2] = 1 μM inhibitor, FIG. 27, nontreated approximately 1.52 (MG132) / 1.50 (bortezomib), may not be statistically significant
smiles,measurement,setting,value
CC(C)C[C@@H](C=O)NC(=O)[C@H](CC(C)C)NC(=O)[C@H](CC(C)C)NC(=O)OCc1ccccc1 [MG132] (Cbz-Leu-Leu-Leu-aldehyde),BMP-1/18S mRNA levels,BMP-1; [1],1.10 a.u.
same,BMP-1/18S mRNA levels,BMP-1; [2],1.09 a.u.
COc1cc(/C=C/C(=O)CC(=O)/C=C/c2ccc(O)c(OC)c2)ccc1O [curcumin],enzyme activity of 20S proteasomes with increasing inhibitor concentration (in words),20S proteasomes,shown to decrease as well
same,BMP-1/18S mRNA levels,"BMP-1; 10 μM curcumin, FIG. 26, nontreated approximately 1.26",1.68 a.u.
same,BMP-1/18S mRNA levels,"BMP-1; 100 μM curcumin, FIG. 26, nontreated approximately 1.26",0.882 a.u.
"CC[C@H](C)[C@H](NC(=O)OCc1ccccc1)C(=O)N[C@@H](CCC(=O)OC(C)(C)C)C(=O)N[C@@H](C)C(=O)N[C@H](C=O)CC(C)C [PS-1, Z-Ile-Glu(OBu^t)-Ala-Leu-H] (Cbz-IE(OtBu)AL-aldehyde)","Tensile strength of rat skin, individual samples",rat skin; 1% PS-1 in DMSO,3.707 and 3.47 and 3.655 and 4.169 and 4.476
same,"Tensile strength of rat skin, Mean",rat skin; 1% PS-1 in DMSO,3.895
same,"Tensile strength of rat skin, individual samples",rat skin; 5% PS-1 in DMSO,4.067 and 4.379 and 3.805 and 5.042 and 5.192
same,strength of rat skin tissue (in words),"rat skin; 5% PS-1 in DMSO, 28 days, FIG. 6",relatively stronger tissue
same,"Tensile strength of rat skin, Mean",rat skin; 5% PS-1 in DMSO,4.497
same,enzyme activity of 20S proteasomes with increasing inhibitor concentration (in words),20S proteasomes,enzyme activity decreased
same,BMP-1/18S mRNA levels,"BMP-1; 0.1 μM PS-1, FIG. 25, nontreated approximately 1.26",0.436 a.u.
same,BMP-1/18S mRNA levels,"BMP-1; 1.0 μM PS-1, FIG. 25, nontreated approximately 1.26",0.480 a.u.
CC(C)C[C@H](NC(=O)[C@H](Cc1ccccc1)NC(=O)c1cnccn1)B(O)O [bortezomib],BMP-1/18S mRNA levels,BMP-1; [1],1.27 a.u.
same,BMP-1/18S mRNA levels,BMP-1; [2],1.27 a.u.
